This data set deals with ATP-dependent translocase ABCB1 (Homo sapiens, UniProt P08183). The data set can be described thus: TP_TRANSPORTER: transepithelial transport (basal to apical) in MDR1-expressing LLC-PK1 cells. In kind it is functional, cell-based. Conditions: pig.

Each structure is given as a SMILES string.

Sequence of ATP-dependent translocase ABCB1 (P08183 whole entry): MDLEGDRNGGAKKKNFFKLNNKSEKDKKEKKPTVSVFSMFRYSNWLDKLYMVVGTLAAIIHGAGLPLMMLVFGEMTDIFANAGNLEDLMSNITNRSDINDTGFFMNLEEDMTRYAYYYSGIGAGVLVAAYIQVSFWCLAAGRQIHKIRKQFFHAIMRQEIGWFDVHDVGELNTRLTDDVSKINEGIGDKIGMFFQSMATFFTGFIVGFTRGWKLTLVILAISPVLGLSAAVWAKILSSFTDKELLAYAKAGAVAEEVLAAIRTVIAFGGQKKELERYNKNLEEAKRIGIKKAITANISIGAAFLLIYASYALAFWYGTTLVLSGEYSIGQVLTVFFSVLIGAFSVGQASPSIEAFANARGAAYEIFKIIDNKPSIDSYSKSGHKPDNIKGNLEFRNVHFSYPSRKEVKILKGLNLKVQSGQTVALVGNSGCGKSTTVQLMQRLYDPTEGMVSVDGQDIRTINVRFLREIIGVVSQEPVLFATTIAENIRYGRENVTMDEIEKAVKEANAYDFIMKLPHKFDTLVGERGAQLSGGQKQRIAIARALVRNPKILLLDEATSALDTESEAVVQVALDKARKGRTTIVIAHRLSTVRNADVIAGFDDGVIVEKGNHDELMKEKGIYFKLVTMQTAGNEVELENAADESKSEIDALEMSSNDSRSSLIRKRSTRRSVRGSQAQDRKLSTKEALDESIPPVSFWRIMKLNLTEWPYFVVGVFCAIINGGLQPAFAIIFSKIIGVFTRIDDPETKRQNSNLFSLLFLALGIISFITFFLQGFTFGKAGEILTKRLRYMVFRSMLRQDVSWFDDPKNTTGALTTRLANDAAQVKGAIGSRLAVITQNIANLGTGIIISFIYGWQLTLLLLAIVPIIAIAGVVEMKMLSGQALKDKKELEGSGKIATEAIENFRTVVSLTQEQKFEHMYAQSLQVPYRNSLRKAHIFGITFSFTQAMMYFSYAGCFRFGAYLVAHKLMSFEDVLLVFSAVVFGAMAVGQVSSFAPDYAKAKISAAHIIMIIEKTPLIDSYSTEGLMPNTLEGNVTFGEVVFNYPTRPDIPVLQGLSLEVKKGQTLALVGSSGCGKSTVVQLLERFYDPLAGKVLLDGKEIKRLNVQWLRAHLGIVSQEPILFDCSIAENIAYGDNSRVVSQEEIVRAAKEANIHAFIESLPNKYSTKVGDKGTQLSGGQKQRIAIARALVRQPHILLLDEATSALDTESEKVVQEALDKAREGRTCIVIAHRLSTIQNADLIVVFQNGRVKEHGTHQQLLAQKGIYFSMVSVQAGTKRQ

For `C[C@]12CCC(=O)C=C1CC[C@@H]1[C@@H]2CC[C@@]2(C)[C@H]1CC[C@]2(O)C(=O)CO` [CORTODOXONE], the Activity entry was “is not a substrate [-]”.

The values above are taken from ChEMBL document CHEMBL2073785, “The role of the efflux transporter P-glycoprotein in brain penetration of prednisolone” (J Endocrinol, 2002).
